From patent US6808892B1, “Method for identifying inhibitors of IPC synthase” (AstraZeneca AB, priority 1998, dated 2004)
*1 amine or outer side, *2 acyl side, *3 side chain or, on linkers, in order; H or OH if unused. Where a SMILES comes first, the peptide text is derived from it. [ ]: non-standard residue; d: D form. X1 = CC[C@@H](C)[C@@H](O[*:1])C(=O)[*:2]; NMeVal(β-OH) = CN[C@H](C(=O)O)C(C)(C)O; NMeF = CN[C@@H](Cc1ccccc1)C(=O)O; aIle = CC[C@@H](C)[C@H](N)C(=O)O; NMeV = CN[C@H](C(=O)O)C(C)C

Tested on: strain lcb1::kanMX, pNS149
Experiment: IPC synthase screen: growth inhibition of the engineered yeast strain with or without added phytosphingosine
Format: cell-based, S. cerevisiae
Description: Therefore in a first aspect of the present invention we provide a screening assay for identifying a selective IPC synthase inhibitor which assay comprises contacting a test compound with engineered cells whose capability to synthesize sphingolipids depends on the addition of exogenous phytosphingosine and which are capable of sustained growth via compensatory phospholipids, adding phytosphingosine, and determining IPC synthase inhibition by the test compound by reference to any cell growth inhibition.
The utility of the lcb1::kanMX pNS149 strain to identify inhibitors of IPC synthase was evaluated using aureobasidinA as a test compound. The lcb1::kanMX pNS149 strain is a further independent aspect of the invention.
Inhibition of growth by aureobasidinA in strain lcb1::kanMX, pNS149 with added phytosphingosine.
Inhibition of growth by aureobasidinA in strain lcb1::kanMX, pNS149 without added phytosphingosine.

CC[C@@H](C)[C@@H]1NC(=O)[C@@H]2CCCN2C(=O)[C@H](Cc2ccccc2)N(C)C(=O)[C@H](Cc2ccccc2)NC(=O)[C@H](C(C)C)N(C)C(=O)[C@@H]([C@H](C)CC)OC(=O)[C@H](C(C)(C)O)N(C)C(=O)[C@H](CC(C)C)NC(=O)[C@H](C(C)C)N(C)C1=O [aureobasidinA] (cyclo(F[NMeF]P[aIle][NMeV]L[NMeVal(β-OH)][X1][NMeV]))
Inhibition of growth (pNS149, with added phytosphingosine (FIG. 1a)): very pronounced
Inhibition of growth (pNS149, without added phytosphingosine (FIG. 1b)): absent
